Test results: ChEMBL document CHEMBL1201862, “PubChem BioAssay data set” (2004)
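Results reflect a 48-hour exposure of cells in 96-well plates to compound at five concentrations. GI50 is the concentration that inhibits growth by half.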 Active and inactive are the calls of the source. Rule as the data show it: active = GI50 up to about 1.1 µM and inactive = higher.

Key:
Experiment in all cases: growth of human tumour cells (NCI), 48 h
[1] = system: 786-0
[2] = system: A498
[3] = system: A549
[4] = system: COLO 205
[5] = system: HOP-62
[6] = system: IGROV-1
[7] = system: LOX IMVI
[8] = system: MDA-MB-435
[9] = system: MDA-N
[10] = system: OVCAR-5
[11] = system: PC-3
[12] = system: RPMI-8226
[13] = system: RXF 393
[14] = system: SF-268
[15] = system: SK-MEL-28
[16] = system: SK-MEL-5
[17] = system: SN12C
[18] = system: SW-620
[19] = system: U-251
[20] = system: UO-31

Measured: GI50

COc1cc2c(cc1O)NC(=S)[C@@H]1CCCN1C2=O
inactive: [1] > 100 µM | [2] > 100 µM | [3] > 100 µM | [4] > 100 µM | [5] > 100 µM | [6] > 100 µM | [7] > 100 µM | [8] > 100 µM | [9] > 100 µM | [10] > 100 µM | [11] > 100 µM | [12] > 100 µM | [13] > 100 µM | [14] > 100 µM | [15] > 100 µM | [16] > 100 µM | [17] > 100 µM | [18] > 100 µM | [19] > 100 µM | [20] > 100 µM

O=C1Nc2ccccc2/C1=C\c1c(-c2ccccc2)nc2n1CCS2
inactive: [1] 19.6 µM | [2] 18.2 µM | [3] 28.4 µM | [4] 29 µM | [5] 29.2 µM | [6] 23 µM | [7] 18.3 µM | [8] 8.93 µM | [9] 13.1 µM | [10] 17.5 µM | [11] 19.1 µM | [12] 22.6 µM | [13] 16.7 µM | [14] 26.5 µM | [15] 31.2 µM | [16] 16.5 µM | [17] 22.1 µM | [18] 29.3 µM | [19] 20.5 µM | [20] 5.68 µM

CCCC(=O)OCOC(=O)N(C)/N=N/c1ccc(C(=O)OCC)cc1
inactive: [1] 17.7 µM | [2] 29.2 µM | [3] 19.3 µM | [4] 18.7 µM | [5] 29 µM | [6] 32 µM | [7] 10.7 µM | [8] 44.1 µM | [9] 28.6 µM | [10] 38 µM | [11] 25.1 µM | [12] 49.1 µM | [13] 16.3 µM | [14] 28.3 µM | [15] 57.7 µM | [16] 29.6 µM | [17] 27.2 µM | [18] 19.8 µM | [19] 25.2 µM | [20] 22 µM

O=C(CCCN1CCC2(CC1)C(=O)NC(=O)N2c1ccccc1)c1ccc(F)cc1
inactive: [1] > 100 µM | [2] > 100 µM | [3] > 100 µM | [4] > 100 µM | [5] > 100 µM | [6] > 100 µM | [7] > 100 µM | [8] > 100 µM | [9] > 100 µM | [10] > 100 µM | [11] > 100 µM | [12] > 100 µM | [13] > 100 µM | [14] > 100 µM | [15] > 100 µM | [16] > 100 µM | [17] > 100 µM | [18] > 100 µM | [19] > 100 µM | [20] > 100 µM

Cc1ccc2cccc3c2c1CC1(C3=O)S(=O)(=O)OCCOS1(=O)=O
inactive: [1] > 100 µM | [2] > 100 µM | [3] > 100 µM | [4] > 100 µM | [5] > 100 µM | [6] > 100 µM | [7] > 100 µM | [8] > 100 µM | [9] > 100 µM | [10] > 100 µM | [11] > 100 µM | [12] > 100 µM | [13] > 100 µM | [14] > 100 µM | [15] > 100 µM | [16] > 100 µM | [17] > 100 µM | [18] > 100 µM | [19] > 100 µM | [20] > 100 µM

CC(C)=CCNc1ncnc2c1ncn2CCC(=O)OC(C)(C)C
inactive: [1] > 100 µM | [2] > 100 µM | [3] > 100 µM | [4] > 100 µM | [5] > 100 µM | [6] > 100 µM | [7] > 100 µM | [8] > 100 µM | [9] > 100 µM | [10] > 100 µM | [11] 34.8 µM | [12] 72.3 µM | [13] 36.1 µM | [14] > 100 µM | [15] > 100 µM | [16] 21.4 µM | [17] > 100 µM | [18] > 100 µM | [19] 63.8 µM | [20] 22.7 µM

CC(C)C1=C(Cc2ccccc2)C(=O)O/C1=C\c1ccc(O)c(Cl)c1
inactive: [1] 16.5 µM | [2] 17.6 µM | [3] 15.1 µM | [4] 20.4 µM | [5] 17.7 µM | [6] 16.8 µM | [7] 18.4 µM | [8] 17 µM | [9] 16.5 µM | [10] 18.4 µM | [11] 17.9 µM | [12] 12.4 µM | [13] 17.5 µM | [14] 16.6 µM | [15] 16.9 µM | [16] 16.7 µM | [17] 16.9 µM | [18] 19.1 µM | [19] 16.7 µM | [20] 14.4 µM

CNC(=O)c1nnn(C2CCCCC2)c1S
inactive: [1] > 100 µM | [2] > 100 µM | [3] > 100 µM | [4] > 100 µM | [5] > 100 µM | [6] > 100 µM | [7] > 100 µM | [8] > 100 µM | [9] > 100 µM | [10] > 100 µM | [11] > 100 µM | [12] > 100 µM | [13] > 100 µM | [14] > 100 µM | [15] > 100 µM | [16] > 100 µM | [17] > 100 µM | [18] > 100 µM | [19] > 100 µM | [20] > 100 µM

O=C(/C=C1\Nc2ccc([N+](=O)[O-])cc2N\C1=C/C(=O)c1ccc(F)cc1)c1ccc(F)cc1
inactive: [1] 12.9 µM | [2] 19.6 µM | [3] > 100 µM | [4] > 100 µM | [5] 7.35 µM | [6] 40 µM | [7] > 100 µM | [8] > 100 µM | [9] > 100 µM | [10] > 100 µM | [11] > 100 µM | [12] 20.9 µM | [13] 17.9 µM | [14] 9.71 µM | [15] > 100 µM | [16] 78.5 µM | [17] 90.2 µM | [18] > 100 µM | [19] 10.2 µM | [20] > 100 µM

O=C1CCC2(O)C3Cc4ccc(Oc5nnnn5-c5ccccc5)c5c4C2(CCN3CC2CC2)C1O5 (centres undefined)
inactive: [1] 20 µM | [2] 29.8 µM | [3] > 100 µM | [4] 17.5 µM | [5] > 100 µM | [6] > 100 µM | [7] 27 µM | [8] 19.9 µM | [9] 22 µM | [10] > 100 µM | [11] 67 µM | [12] 28.9 µM | [13] 39.1 µM | [14] 34.7 µM | [15] 14.9 µM | [16] 12.8 µM | [17] > 100 µM | [18] 33.7 µM | [19] 33.4 µM | [20] 24.2 µM

COC(=O)[C@]12CC[C@H]3CN(C(=O)OCc4ccccc4)[C@H]([C@H]31)[C@H](c1ccco1)N2S(=O)(=O)c1ccc(C)cc1
inactive: [1] 17.5 µM | [2] 27.4 µM | [3] 31.8 µM | [4] 19.8 µM | [5] 25.8 µM | [6] 20.5 µM | [7] 16.3 µM | [8] 23.3 µM | [9] 18.9 µM | [10] 38.5 µM | [11] 31 µM | [12] 11.6 µM | [13] 18.2 µM | [14] 24.2 µM | [15] 39.2 µM | [16] 16.5 µM | [17] 18.5 µM | [18] 30.4 µM | [19] 27.9 µM | [20] 20.9 µM

CC(O)(CNS(=O)(=O)c1ccccc1)c1ccccc1 (centres undefined)
inactive: [1] > 100 µM | [2] > 100 µM | [3] > 100 µM | [4] > 100 µM | [5] > 100 µM | [6] > 100 µM | [7] > 100 µM | [8] > 100 µM | [9] > 100 µM | [10] > 100 µM | [11] > 100 µM | [12] > 100 µM | [13] > 100 µM | [14] > 100 µM | [15] > 100 µM | [16] > 100 µM | [17] > 100 µM | [18] > 100 µM | [19] > 100 µM | [20] > 100 µM

CCCN(CCCc1ccccc1)CCc1ccc2[nH]c(=S)[nH]c2c1
inactive: [1] 12.6 µM | [2] > 100 µM | [3] 34 µM | [4] 16.8 µM | [5] 26.5 µM | [6] 14.1 µM | [7] 31.3 µM | [8] 18.7 µM | [9] 19.2 µM | [10] 48.5 µM | [11] 41.6 µM | [12] 12.4 µM | [13] 11.2 µM | [14] 52.4 µM | [15] 20.1 µM | [17] > 100 µM | [18] 27 µM | [19] 33.4 µM | [20] 6.75 µM

NC(=O)CC(N)c1nnn[nH]1 (centres undefined)
inactive: [1] > 100 µM | [2] > 100 µM | [3] > 100 µM | [4] > 100 µM | [5] > 100 µM | [6] > 100 µM | [7] > 100 µM | [8] > 100 µM | [9] > 100 µM | [10] > 100 µM | [11] > 100 µM | [12] > 100 µM | [13] > 100 µM | [14] > 100 µM | [15] > 100 µM | [16] > 100 µM | [17] > 100 µM | [18] > 100 µM | [19] > 100 µM | [20] > 100 µM
